# ChEMBL document CHEMBL4311942, “Design of Trp-Rich Dodecapeptides with Broad-Spectrum Antimicrobial Potency and Membrane-Disruptive Mechanism” (J Med Chem, 2019)
# Activity calls are given as the source filed them. The rule behind the calls is not given here. Where a SMILES comes first, the peptide text is derived from it.
# Tests used:
# [1] = system: Escherichia coli; test: Inhibition of swimming motility of Escherichia coli ATCC 25922 after 16 hrs; format: functional, organism-based
# [2] = system: Escherichia coli; test: Antibacterial activity against Escherichia coli ATCC 25922 in presence of 25% serum by broth microdilution method; format: functional
# [3] = system: Staphylococcus aureus; test: Antibacterial activity against Staphylococcus aureus ATCC 29213 incubated for 2 hrs in presence of sodium phosphate buffer at pH 4 by broth microdilution method; format: functional; conditions: ATCC 29213, 2 h
# [4] = system: Staphylococcus aureus; test: Antibacterial activity against Staphylococcus aureus 11011 incubated for 18 to 24 hrs by broth microdilution method; format: functional
# [5] = system: Staphylococcus aureus; test: Induction of cell membrane disruption in Staphylococcus aureus ATCC 29213 after 30 mins by propidium iodide-staining based flow cytometric analysis; format: organism-based
# [6] = system: Staphylococcus aureus; test: Antibacterial activity against Staphylococcus aureus ATCC 29213 in presence of MgCl2 by broth microdilution method; format: functional
# [7] = system: Escherichia coli; test: Induction of cytoplasmic membrane depolarization in Escherichia coli UB1005 by DiSC3-5 dye based fluorescence method; format: organism-based
# [8] = system: Pseudomonas aeruginosa; test: Antibacterial activity against Pseudomonas aeruginosa 25349 clinical isolate incubated for 18 to 24 hrs by broth microdilution method; format: functional
# [9] = system: Escherichia coli; test: Induction of cell membrane disruption in Escherichia coli ATCC 25922 after 30 mins by propidium iodide-staining based flow cytometric analysis; format: organism-based
# [10] = system: Staphylococcus aureus; test: Antibacterial activity against Staphylococcus aureus ATCC 29213 in presence of NH4Cl by broth microdilution method; format: functional
# [11] = system: Staphylococcus aureus; test: Antibacterial activity against Staphylococcus aureus ATCC 29213 using preheated compound at 100 degreeC for 1 hr by broth microdilution method; format: functional; conditions: ATCC 29213, 1 h
# [12] = system: Salmonella typhimurium; test: Antibacterial activity against Salmonella enterica serovar typhimurium C77-31 incubated for 18 to 24 hrs by broth microdilution method; format: functional, Salmonella enterica subsp. enterica serovar Typhimurium
# [13] = system: Staphylococcus aureus; test: Antibacterial activity against Staphylococcus aureus ATCC 29213 incubated for 2 hrs in presence of sodium phosphate buffer at pH 10 by broth microdilution method; format: functional; conditions: ATCC 29213, 2 h
# [14] = system: Staphylococcus aureus; test: Antibacterial activity against Staphylococcus aureus ATCC 29213 incubated for 2 hrs in presence of sodium phosphate buffer at pH 12 by broth microdilution method; format: functional; conditions: ATCC 29213, 2 h
# [15] = system: Lipopolysaccharide (LPS); test: Displacement of BODIPY-TR-cadaverine from Escherichia coli O111:B4 LPS assessed as increase in fluorescence intensity at 64 uM by spectrofluorophotometric method relative to control
# [16] = system: Escherichia coli; test: Induction of cell membrane disruption in Escherichia coli ATCC 25922 assessed as leakage of cellular contents at 1 to 2 times MIC after 60 mins by transmission electron microscopy; format: organism-based
# [17] = Cytotoxicity against mouse RAW264.7 cells assessed as cell survival at […] after 24 hrs by MTT assay relative to control; format: cell-based; conditions: read-out: Activity
# [18] = system: Erythrocyte; test: Haemolytic activity in human erythrocytes assessed as lowest concentration causing 5% hemolysis after 1 hr; format: ADME, cell-based
# [19] = system: Escherichia coli; test: Antibacterial activity against Escherichia coli ATCC 25922 in presence of KCl by broth microdilution method; format: functional
# [20] = system: Staphylococcus aureus; test: Antibacterial activity against Staphylococcus aureus ATCC 29213 incubated for 18 to 24 hrs using FITC-labelled peptide by broth microdilution method; format: functional, organism-based
# [21] = system: Staphylococcus aureus; test: Antibacterial activity against Staphylococcus aureus ATCC 29213 in presence of KCl by broth microdilution method; format: functional
# [22] = system: Escherichia coli; test: Bactericidal activity against Escherichia coli ATCC 25922 at 2 times MIC after 120 mins by time kill assay relative to control; format: functional
# [23] = system: Staphylococcus aureus; test: Antibacterial activity against Staphylococcus aureus ATCC 25923 incubated for 18 to 24 hrs by broth microdilution method; format: functional
# [24] = system: Escherichia coli; test: Antibacterial activity against Escherichia coli ATCC 25922 in presence of NaBH4 by broth microdilution method; format: functional
# [25] = system: Escherichia coli; test: Antibacterial activity against Escherichia coli ATCC 25922 in presence of 12.5% serum by broth microdilution method; format: functional
# [26] = system: Escherichia coli; test: Bactericidal activity against Escherichia coli ATCC 25922 assessed as reduction in bacterial growth at 2 times MIC after 60 mins by time kill assay relative to control; format: functional
# [27] = system: Pseudomonas aeruginosa; test: Antibacterial activity against Pseudomonas aeruginosa PAO1 at sub-MIC treated over 35 serial passages by resistant development assay; format: functional, organism-based
# [28] = system: Escherichia coli; test: Antibacterial activity against Escherichia coli ATCC 25922 incubated for 2 hrs in presence of sodium phosphate buffer at pH 2 by broth microdilution method; format: functional; conditions: ATCC 25922, 2 h
# [29] = system: Staphylococcus aureus; test: Induction of cell membrane disruption in Staphylococcus aureus ATCC 29213 assessed as apperance of rough membrane with discrete blebs at 1 times MIC after 60 mins by field emission scanning electron microscopy; format: organism-based
# [30] = system: Staphylococcus aureus; test: Bactericidal activity against Staphylococcus aureus ATCC 29213 at 4 times MIC after 30 mins by time kill assay; format: functional, organism-based
# [31] = system: Staphylococcus aureus; test: Antibacterial activity against Staphylococcus aureus ATCC 29213 incubated for 2 hrs in presence of sodium phosphate buffer at pH 2 by broth microdilution method; format: functional; conditions: ATCC 29213, 2 h
# [32] = system: Escherichia coli; test: Antibacterial activity against Escherichia coli ATCC 25922 incubated for 18 to 24 hrs using FITC-labelled peptide by broth microdilution method; format: functional, organism-based
# [33] = system: Escherichia coli; test: Antibacterial activity against Escherichia coli ATCC 25922 in presence of NaCl by broth microdilution method; format: functional
# [34] = system: Staphylococcus aureus; test: Induction of cell membrane disruption in Staphylococcus aureus ATCC 29213 assessed as collapsed membrane at 1 to 2 times MIC after 60 mins by transmission electron microscopy; format: organism-based
# [35] = system: Staphylococcus aureus; test: Antibacterial activity against Staphylococcus aureus ATCC 29213 in presence of 50% serum by broth microdilution method; format: functional
# [36] = Drug localization in Escherichia coli ATCC 25922 at 2 times MIC incubated for 1 hr using FITC-labelled peptides by propidium iodide-staining based super resolution fluorescent microscopy; format: ADME
# [37] = system: Escherichia coli; test: Antibacterial activity against Escherichia coli ATCC 25922 in presence of CaCl2 by broth microdilution method; format: functional
# [38] = system: Escherichia coli; test: Induction of outer membrane permeabilization in Escherichia coli UB1005 assessed as increase in NPN uptake by spectrofluorophotometric assay; format: organism-based
# [39] = system: Escherichia coli; test: Antibacterial activity against Escherichia coli UB1005 incubated for 18 to 24 hrs by broth microdilution method; format: functional
# [40] = system: Acinetobacter baumannii; test: Antibacterial activity against Acinetobacter baumannii AB1902 clinical isolate incubated for 18 to 24 hrs by broth microdilution method; format: functional
structure (smiles),measurement,setting,value
CC(C)C[C@H](NC(=O)[C@H](CCCNC(=N)N)NC(=O)[C@H](Cc1c[nH]c2ccccc12)NC(=O)[C@H](CCCNC(=N)N)NC(=O)[C@@H](NC(=O)[C@H](CCCCN)NC(=O)[C@H](Cc1c[nH]c2ccccc12)NC(=O)[C@H](CCCNC(=N)N)NC(=O)[C@H](CC(C)C)NC(=O)[C@H](CCCNC(=N)N)NC(=O)[C@@H](N)Cc1c[nH]c2ccccc12)[C@@H](C)O)C(=O)N[C@@H](CCCCN)C(N)=O (H-WRLRWKTRWRLK-NH2),inhibition,[1],Dose-dependent effect
same,MIC,[2],4 µM
same,MIC,[3],4 µM
same,MIC,[4],2 µM
same,Activity,[5],Dose-dependent effect
same,MIC,[6],2 µM
same,Activity,[7],Dose-dependent effect
same,MIC,[8],8 µM
same,Activity,[9],Dose-dependent effect
same,MIC,[10],4 µM
same,MIC,[11],2 µM
same,MIC,[12],2 µM
same,MIC,[13],4 µM
same,MIC,[14],8 µM
same,Activity,[15],92%
same,Activity,[16],Active
same,"viability at 24 h, […]",[17],≤ 90%
same,MHC,[18],> 128 µM
same,MIC,[19],2 µM
same,Activity,[20],Active
same,MIC,[21],2 µM
same,Activity,[22],100%
same,MIC,[23],2 µM
same,MIC,[24],4 µM
same,MIC,[25],4 µM
same,log(activity),[26],1
same,Activity,[27],Active
same,MIC,[28],4 µM
same,Activity,[29],Active
same,Activity,[30],Active
same,MIC,[31],4 µM
same,Activity,[32],Active
same,MIC,[33],4 µM
same,Activity,[34],Active
same,MIC,[35],8 µM
same,Drug uptake,[36],Active
same,MIC,[37],2 µM
same,Activity,[38],Dose-dependent effect
same,MIC,[39],2 µM
same,MIC,[40],4 µM
